Measured values as given in patent US8288410B2, “3-substituted quinolinium and 7H-indolo[2,3-c]quinolinium salts as new antiinfectives” (Florida Agricultural and Mechanical University, priority 2008, dated 2012).
Read-outs that look alike come from different tables or passages of the source.

How the values were obtained:
[1] = system: Candida albicans ATTC 90028; test: Antifungal susceptibility testing, Candida albicans; format: cell-based
How it was run: (§1)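 Modified NCCLS broth microdilution, samples serially diluted from 20 μg/mL top concentration, inocula per 0.5 McFarland (C. albicans in SDB or RPMI 1640; C. neoformans in SDB; A. fumigatus in YM broth or RPMI-1640 + 5% Alamar Blue). IC50 from percent growth versus concentration; MIC read visually as lowest concentration without detectable growth.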

[2] = system: Cryptococcus neoformans ATCC 90113; test: Antifungal susceptibility testing, Cryptococcus neoformans; format: cell-based
How it was run: as §1

[3] = system: Aspergillus fumigatus ATCC 90906; test: Antifungal susceptibility testing, Aspergillus fumigatus; format: cell-based; details: for IC50: ATCC90906, Aspergillus fumigatus, read-out: A fu IC50
How it was run: as §1

MRSA = test: Antibacterial susceptibility testing, MRSA; format: cell-based, methicillin resistant Staphylococcus aureus; details: Staphylococcus aureus
How it was run: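 Each plate carried growth (saline only), solvent and blank (media only) controls, and Ciprofloxacin was the drug control. Plates were read before and after final incubation. MIC, the lowest concentration showing no detectable growth, was judged visually, and IC50 was obtained by plotting percent growth against concentration.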

Vero Cells = test: Cytotoxicity, Vero cells; format: cell-based
[4] = ATTC90028, Table 1, read-out: Ca IC50
[5] = ATTC90028, Table 1, read-out: Ca MFC
[6] = ATTC90028, Table 1, read-out: Ca MIC
[7] = ATCC90113, Table 1, read-out: Cn IC50
[8] = ATCC90113, Table 1, read-out: Cn MFC
[9] = ATCC90113, Table 1, read-out: Cn MIC

Q: Which results are given for `C[n+]1cc2c(c3cc(C(F)(F)F)ccc3n2CCCCCC2CCCCC2)c2ccccc21.[I-]` [JRE-4-17-1, 10-Trifluoromethyl-7-(5-cyclohexyl-pentyl)-5-methyl-7H-indolo[2,3-c]quinolin-5-ium iodide]?
A: IC50 ([1]; ATTC90028, Table 3, read-out: Ca IC50): 3.5 µg/mL; MFC ([1]; ATTC90028, Table 3, read-out: Ca MFC): 10 µg/mL; MIC ([1]; ATTC90028, Table 3, read-out: Ca MIC): 5 µg/mL; IC50 ([2]; ATCC90113, Table 3, read-out: Cn IC50): 3 µg/mL; MFC ([2]; ATCC90113, Table 3, read-out: Cn MFC): 5 µg/mL; MIC ([2]; ATCC90113, Table 3, read-out: Cn MIC): 5 µg/mL; A fu MFC [3]: 10 µg/mL; A fu MIC [3]: 10 µg/mL; IC50 ([3]; Table 3): 3.5 µg/mL; IC50 (MRSA; Table 3, read-out: MRSA IC50): 1.5 µg/mL; MFC (MRSA; Table 3, read-out: MRSA MFC): 5 µg/mL; MIC (MRSA; Table 3, read-out: MRSA MIC): 2.5 µg/mL; TC50 Vero Cells (Vero Cells; Table 3): >10 µg/mL; melting point: 231 to 233 °C

Q: Which results are given for `FC(F)(F)c1cccc(Sc2cc3ccccc3[n+](CCCCC[n+]3cc(Sc4cccc(C(F)(F)F)c4)cc4ccccc43)c2)c1` [XYZ-IV-55]?
A: IC50 [1, 4]: 15 µg/mL; MFC [1, 5]: > 20 µg/mL; MIC [1, 6]: > 20 µg/mL; IC50 [2, 7]: 0.95 µg/mL; MFC [2, 8]: 20 µg/mL; MIC [2, 9]: 2.5 µg/mL; IC50 ([3]; Table 1): 7.5 µg/mL; IC50 (MRSA; Table 1, read-out: MRS IC50): 0.8 µg/mL; MFC (MRSA; Table 1, read-out: MRS MFC): 10 µg/mL; MIC (MRSA; Table 1, read-out: MRS MIC): 2.5 µg/mL; TC50 Vero Cells (Vero Cells; Table 1): NC (NC = Not toxic at 10 μg/mL); melting point: 167 to 168 °C

Q: Which IC50 ([1]; ATTC90028, Table 2, read-out: Ca IC50) does the source give for `C[n+]1cccc(N(CCCCCC2CCCCC2)c2ccccc2)c1` [JRE-4-1-1] here?
A: The IC50 was 3.5 µg/mL.

Q: What about the MFC ([1]; ATTC90028, Table 2, read-out: Ca MFC) of the same compound?
A: Its MFC is over 20 µg/mL.

Q: And the MIC ([1]; ATTC90028, Table 2, read-out: Ca MIC)?
A: Its MIC is 10 µg/mL.

Q: What about the IC50 ([2]; ATCC90113, Table 2, read-out: Cn IC50) of the same compound?
A: Its IC50 is 1.5 µg/mL.

Q: What about the MFC ([2]; ATCC90113, Table 2, read-out: Cn MFC) of the same compound?
A: Its MFC is 5 µg/mL.

Q: And the MIC ([2]; ATCC90113, Table 2, read-out: Cn MIC)?
A: Its MIC is 2.5 µg/mL.

Q: What about the “A fu MFC” value [3] of the same compound?
A: The value was 1.3 µg/mL.

Q: And the “A fu MIC” value [3]?
A: The value was 1.3 µg/mL.

Q: What about the IC50 ([3]; Table 2) of the same compound?
A: The IC50 was 0.9 µg/mL.

Q: And the IC50 (MRSA; Table 2, read-out: MRSA IC50)?
A: The IC50 was 1.5 µg/mL.

Q: And the MIC (MRSA; Table 2, read-out: MRSA MIC)?
A: Its MIC is 5 µg/mL.

Q: What about the “TC50 Vero Cells” value (Vero Cells; Table 2) of the same compound?
A: The value was 8.3 µg/mL.

Q: What about the melting point of the same compound?
A: The melting point was 124 to 125 °C.

Q: What does the source list for `FC(F)(F)c1ccccc1Sc1cc2ccccc2[n+](CCCCC[n+]2c3ccccc3cc3[nH]c4ccccc4c32)c1` [XYZ-IV-52]?
A: IC50 [1, 4]: > 20 µg/mL; MFC [1, 5]: > 20 µg/mL; MIC [1, 6]: > 20 µg/mL; IC50 [2, 7]: 4 µg/mL; MFC [2, 8]: > 20 µg/mL; MIC [2, 9]: 10 µg/mL; A fu MIC [3]: 10 µg/mL; IC50 ([3]; Table 1): 5 µg/mL; IC50 (MRSA; Table 1, read-out: MRS IC50): 2 µg/mL; MFC (MRSA; Table 1, read-out: MRS MFC): > 20 µg/mL; MIC (MRSA; Table 1, read-out: MRS MIC): 5 µg/mL; TC50 Vero Cells (Vero Cells; Table 1): NC (NC = Not toxic at 10 μg/mL); melting point: 154 to 156 °C

Q: With `FC(F)(F)c1ccccc1Sc1cc2ccccc2[n+](CCCCC[n+]2cc(Sc3ccccc3C(F)(F)F)cc3ccccc32)c1` [XYZ-IV-45] as the compound, how does the IC50 [1, 4] read?
A: The IC50 was over 20 µg/mL.

Q: What about the MFC [1, 5] of the same compound?
A: Its MFC is over 20 µg/mL.

Q: And the MIC [1, 6]?
A: Its MIC is over 20 µg/mL.

Q: What about the IC50 [2, 7] of the same compound?
A: The IC50 was 0.6 µg/mL.

Q: And the MFC [2, 8]?
A: The MFC was 20 µg/mL.

Q: And the MIC [2, 9]?
A: The MIC was 2.5 µg/mL.

Q: What about the “A fu MIC” value [3] of the same compound?
A: Its value is 20 µg/mL.

Q: What about the IC50 ([3]; Table 1) of the same compound?
A: Its IC50 is 9 µg/mL.

Q: And the IC50 (MRSA; Table 1, read-out: MRS IC50)?
A: The IC50 was 0.95 µg/mL.

Q: And the MFC (MRSA; Table 1, read-out: MRS MFC)?
A: The MFC was over 20 µg/mL.

Q: What about the MIC (MRSA; Table 1, read-out: MRS MIC) of the same compound?
A: The MIC was 5 µg/mL.

Q: And the “TC50 Vero Cells” value (Vero Cells; Table 1)?
A: Its value is “NC (NC = Not toxic at 10 μg/mL)”.

Q: What about the melting point of the same compound?
A: The melting point was 175 to 176 °C.
